The target of one assay is T1, BRD4 (BDI_K57-E168) (Homo sapiens, UniProt O60885).
T1 construct: BD1: amino acids K57-E168; made in house
The assay can be described thus: TR-FRET bromodomain binding assay, first bromodomain of BRD4. The note with it: 100 nM probe. The essentials: (§1)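 Ki values derive from IC50s using probe Kd and concentration, with IC50s fitted to normalized TR-FRET ratios (Ex 340/Em 495, 520). Compounds competed against an Alexa647-labelled BET-inhibitor (100 nM BDI, 30 nM BDII) for 8 nM His-tagged bromodomain bound by Eu-anti-His antibody, 1 h, room temperature, pH 6.0.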
Background: Time-resolved FRET reads energy transfer from a long-lived donor to a nearby acceptor.

The next assay concerns the target T2, BRD4 (BDII_E352-M457) (Homo sapiens, UniProt O60885).
T2 construct: protocol; made in house
As to the kind of experiment: TR-FRET bromodomain binding assay, second bromodomain of BRD4. The following applies: 30 nM probe. An outline of the steps: as §1

For assay [1], the system named is breast cancer cell line MX-1. As to the kind of experiment: MX-1 cell line proliferation assay. Type of assay: cell-based. The following applies: MX-1 cells, 3-day proliferation assay, Cell Titer Glo; read-out: Cellular proliferation: EC50. The essentials: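 EC50 comes from sigmoidal fits of Cell Titer Glo luminescence relative to DMSO controls, with assay MSR 2.1. Ten-point 3-fold dilutions (top 3 or 1 μM final) were added to MX-1 breast cancer cells after overnight adhesion. Cells were at 5000/well and proliferation ran 3 days.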
For orientation: Cellular ATP, detected with luciferase, serves as a proxy for viable cell number.

The subject of assay [2] is IL-6 (Interleukin-6) production. The assay can be described thus: LPS (lipopolysaccharide) induced IL-6 production mouse assay. Format: in vivo, mice. The following applies: oral administration 1 h before LPS 2.5 mg/kg ip, serum 2 h after LPS, p < 0.05 vs vehicle. How it is done:
LPS (Lipopolysaccharide) Induced IL-6 Production Mouse Assay
Compounds of the Examples listed in Table 2 were assayed for their ability to inhibit LPS (lipopolysaccharide) induced IL-6 (Interleukin-6) production in mice. Fox Chase SCID® female mice (Charles Rivers Labs, 5 per group) or CD1 female mice (5 per group) received an intraperitoneal challenge of lipopolysaccharide (2.5 mg/kg, L2630 E. coli 0111:B4) one hour after oral administration of compounds. Mice were euthanized 2 hours after lipopolysaccharide injection, blood was removed by cardiac puncture, and then the serum harvested from the blood samples was frozen at −80° C. On the day of the assay the serum samples were brought to room temperature and then diluted 1:20 in phosphate-buffered saline containing 2% bovine serum albumin. Interleukin-6 measurements were performed using a cytokine assay from Meso Scale Discovery (Gaithersburg, Md.) for mouse serum analysis according to the manufacturer's protocol and read on a SECTOR Imager 6000 (Meso Scale Discovery, Gaithersburg, Md.) instrument. Statistical analysis was performed using Prism software (version 5.0) incorporating Dunnett's one way ANOVA. The IL-6 mean and standard deviation of the group of vehicle treated animals were compared with the IL-6 mean and standard deviation of the group treated with drug. A p value <0.05 means that there is less than a 5% probability that the mean values in the two groups are equal.

Setting [3] is: TR-FRET assay protocol G (compound 0.92 μM-15 pM).
The mark [4] stands for this setting: TR-FRET assay protocol E (compound 9.19 μM-150 pM).
Where [5] appears, read: TR-FRET assay protocol B (compound 49.02 μM-15.63 nM).

We go through 17 molecules from patent US10035800B2 (AbbVie Inc., priority 2013, dated 2018).

Take “5,7-difluoro-10-methyl-4-((tetrahydrofuran-3-yl)methyl)-3,4-dihydro-1H-1,4,10-triazadibenzo[cd,f]azulen-11(10H)-one [Example 42]”: the figures for the Ki at BRD4 (BDI_K57-E168) (setting [3]) and at BRD4 (BDII_E352-M457) (setting [3]) were 1.56 nM and 2.03 nM, respectively. In assay [1], the EC50 is 5.44 nM. In assay [2] (mouse strain CD1), the “% inhibition of LPS induced IL-6 production” value (shortened to “% inhibition”) is on record as 86%.

On to `CCS(=O)(=O)Nc1cnc2c(c1)-c1cn(C)c(=O)c3[nH]cc(c13)CN2c1ccc(F)cc1F` [Example 23, N-(4-(2,4-difluorophenyl)-10-methyl-11-oxo-3,4,10,11-tetrahydro-1H-1,4,5,10-tetraazadibenzo[cd,f]azulen-7-yl)ethanesulfonamide], for which the results for the Ki on BRD4 (BDI_K57-E168) (setting [4]) and on BRD4 (BDII_E352-M457) (setting [4]) were 1.7 nM and 0.783 nM, respectively. The EC50 in assay [1] was 7 nM. In assay [2] (mouse strain SCID), the “% inhibition” value came to 54%.

With `CCNC(=O)c1[nH]c2c(=O)n(C)cc3c2c1CN(c1ccc(Cl)cc1)c1ccc(CS(C)(=O)=O)cc1-3` [Example 59, 4-(4-chlorophenyl)-N-ethyl-10-methyl-7-((methylsulfonyl)methyl)-11-oxo-3,4,10,11-tetrahydro-1H-1,4,10-triazadibenzo[cd,f]azulene-2-carboxamide], the figures for the Ki on BRD4 (BDI_K57-E168) (setting [3]) and at BRD4 (BDII_E352-M457) (setting [3]) were 3.1 nM and 0.972 nM, respectively. In addition, the EC50 in assay [1] came to 3.8 nM. In addition, the “% inhibition” value in assay [2] (mouse strain CD1) was determined as 68%.

In the case of `Cn1cc2c3c(c[nH]c3c1=O)CN(c1ccc(F)cc1)c1ccc(S(C)(=O)=O)cc1-2` [Example 8, 4-(4-fluorophenyl)-10-methyl-7-(methylsulfonyl)-3,4-dihydro-1H-1,4,10-triazadibenzo[cd,f]azulen-11(10H)-one], the figures for the Ki on BRD4 (BDI_K57-E168) (setting [4]) and on BRD4 (BDII_E352-M457) (setting [4]) were 0.646 nM and 3.77 nM, respectively. Besides, in assay [1], the EC50 was 5.68 nM. Further, in assay [2] (mouse strain SCID), the “% inhibition” value is on record as 53%.

Consider `Cn1cc2c3c(c[nH]c3c1=O)CN(C1CCOCC1)c1ccc(CS(C)(=O)=O)cc1-2` [Example 151, 10-methyl-7-((methylsulfonyl)methyl)-4-(tetrahydro-2H-pyran-4-yl)-3,4-dihydro-1H-1,4,10-triazadibenzo[cd,f]azulen-11(10H)-one], for which the Ki (as a rule, the dissociation constant of the complex between target and ligand, obtained from inhibition or displacement) on BRD4 (BDI_K57-E168) (setting [3]) stood at 1.14 nM; at BRD4 (BDII_E352-M457) (setting [3]), 2.3 nM. Further, the EC50 in assay [1] amounted to 4.26 nM. Besides, the “% inhibition” value in assay [2] (mouse strain CD1) was 57%.

For the molecule “10-methyl-7-((methylsulfonyl)methyl)-4-((tetrahydro-2H-pyran-3-yl)methyl)-3,4-dihydro-1H-1,4,10-triazadibenzo[cd,f]azulen-11(10H)-one [Example 29]”, the figures for the Ki at BRD4 (BDI_K57-E168) (setting [4]) and at BRD4 (BDII_E352-M457) (setting [4]) were 6.95 nM and 2.74 nM, respectively. Moreover, the EC50 in assay [1] worked out at 1.03 nM. Further, the “% inhibition” value in assay [2] (mouse strain SCID) worked out at 76%.

For the molecule `Cn1cc2c3c(c[nH]c3c1=O)CN(c1ccc(F)cc1F)c1c-2cc(CS(C)(=O)=O)cc1C1CC1` [Example 195, 5-cyclopropyl-4-(2,4-difluorophenyl)-10-methyl-7-((methylsulfonyl)methyl)-3,4-dihydro-1H-1,4,10-triazadibenzo[cd,f]azulen-11(10H)-one], the Ki at BRD4 (BDI_K57-E168) (setting [3]) was 2.66 nM; at BRD4 (BDII_E352-M457) (setting [3]), 0.62 nM. Further, the EC50 in assay [1] was 3.77 nM. Besides, the “% inhibition” value in assay [2] (mouse strain CD1) is recorded as 85%.

For “4-((4,4-difluorocyclohexyl)methyl)-10-methyl-7-((methylsulfonyl)methyl)-3,4-dihydro-1H-1,4,10-triazadibenzo[cd,f]azulen-11(10H)-one [Example 27]”, the Ki on BRD4 (BDI_K57-E168) (setting [4]) came to 1.19 nM; on BRD4 (BDII_E352-M457) (setting [4]) it was 1.01 nM. Besides, the EC50 in assay [1] worked out at 1.27 nM. Also, the “% inhibition” value in assay [2] (mouse strain SCID) turned out to be 79%.

With “N-ethyl-4-(4-fluorophenyl)-10-methyl-7-((methylsulfonyl)methyl)-11-oxo-3,4,10,11-tetrahydro-1H-1,4,10-triazadibenzo[cd,f]azulene-2-carboxamide [Example 194]”, the Ki was 1.33 nM at BRD4 (BDI_K57-E168) (setting [3]) and 0.38 nM on BRD4 (BDII_E352-M457) (setting [3]). The EC50 in assay [1] was determined as 1.47 nM. Also, in assay [2] (mouse strain CD1), the “% inhibition” value is 53%.

Consider `Cn1cc2c3c(c[nH]c3c1=O)CN(c1ccc(C#N)cc1)c1ccc(CS(C)(=O)=O)cc1-2` [Example 192, 4-(10-methyl-7-((methylsulfonyl)methyl)-11-oxo-10,11-dihydro-1H-1,4,10-triazadibenzo[cd,f]azulen-4(3H)-yl)benzonitrile], for which the Ki at BRD4 (BDI_K57-E168) (setting [3]) is 1.65 nM; at BRD4 (BDII_E352-M457) (setting [3]), 1.08 nM. Further, the EC50 in assay [1] is 1.25 nM. In assay [2] (mouse strain CD1), the “% inhibition” value stood at 73%.

Take `CN1CCN(C(=O)c2[nH]c3c(=O)n(C)cc4c3c2CN(c2ccc(Cl)cc2)c2ccc(CS(C)(=O)=O)cc2-4)CC1` [Example 60, 4-(4-chlorophenyl)-10-methyl-2-(4-methylpiperazine-1-carbonyl)-7-((methylsulfonyl)methyl)-3,4-dihydro-1H-1,4,10-triazadibenzo[cd,f]azulen-11(10H)-one]: the Ki amounted to 2.55 nM at BRD4 (BDI_K57-E168) (setting [3]) and 33.1 nM on BRD4 (BDII_E352-M457) (setting [3]). Further, in assay [1], the EC50 worked out at 115 nM. For the same molecule, in assay [2] (mouse strain CD1), the “% inhibition” value is given as 44%.

For `Cn1cc2c3c(c(C(N)=O)[nH]c3c1=O)CN(c1ccc(Cl)cc1)c1ccc(CS(C)(=O)=O)cc1-2` [Example 58, 4-(4-chlorophenyl)-10-methyl-7-((methylsulfonyl)methyl)-11-oxo-3,4,10,11-tetrahydro-1H-1,4,10-triazadibenzo[cd,f]azulene-2-carboxamide], the figures for the Ki at BRD4 (BDI_K57-E168) (setting [3]) and on BRD4 (BDII_E352-M457) (setting [3]) were 2.02 nM and 0.617 nM, respectively. Also, the EC50 in assay [1] was determined as 5.38 nM. Moreover, the “% inhibition” value in assay [2] (mouse strain CD1) came out at 39%.

For `CCOC(=O)C1c2c[nH]c3c(=O)n(C)cc(c23)-c2cc(CS(C)(=O)=O)ccc2N1CC1CC1` (stereo not drawn) [Example 7, ethyl 4-(cyclopropylmethyl)-10-methyl-7-((methylsulfonyl)methyl)-11-oxo-3,4,10,11-tetrahydro-1H-1,4,10-triazadibenzo[cd,f]azulene-3-carboxylate], the results for the Ki at BRD4 (BDI_K57-E168) (setting [5]) and at BRD4 (BDII_E352-M457) (setting [5]) were 51.1 nM and 26.7 nM, respectively. The EC50 in assay [1] was 14.5 nM. The “% inhibition” value in assay [2] (mouse strain SCID) stood at 53%.

Take `Cn1cc2c3c(c[nH]c3c1=O)CN(c1ccc(Cl)cc1)c1ccc(CS(C)(=O)=O)cc1-2` [Example 198, 4-(4-chlorophenyl)-10-methyl-7-((methylsulfonyl)methyl)-3,4-dihydro-1H-1,4,10-triazadibenzo[cd,f]azulen-11(10H)-one]: the Ki amounted to 1.59 nM at BRD4 (BDI_K57-E168) (setting [3]) and 0.63 nM on BRD4 (BDII_E352-M457) (setting [3]). Also, in assay [1], the EC50 stood at 0.69 nM. Also, the “% inhibition” value in assay [2] (mouse strain CD1) is recorded as 86%.

Turning to `Cn1cc2c3c(c[nH]c3c1=O)CN(C1CCCOC1)c1ccc(CS(C)(=O)=O)cc1-2` (racemic) [Example 182, 10-methyl-7-((methylsulfonyl)methyl)-4-(tetrahydro-2H-pyran-3-yl)-3,4-dihydro-1H-1,4,10-triazadibenzo[cd,f]azulen-11(10H)-one], the results for the Ki at BRD4 (BDI_K57-E168) (setting [3]) and at BRD4 (BDII_E352-M457) (setting [3]) were 1.31 nM and 2 nM, respectively. Moreover, the EC50 in assay [1] came to 1.08 nM. In addition, in assay [2] (mouse strain CD1), the “% inhibition” value amounted to 77%.

For the molecule `CC(C)CC(=O)N1Cc2c[nH]c3c(=O)n(C)cc(c23)-c2cc(CS(C)(=O)=O)ccc21` [Example 106, 10-methyl-4-(3-methylbutanoyl)-7-((methylsulfonyl)methyl)-3,4-dihydro-1H-1,4,10-triazadibenzo[cd,f]azulen-11(10H)-one], the Ki at BRD4 (BDI_K57-E168) (setting [3]) was 5.89 nM; on BRD4 (BDII_E352-M457) (setting [3]), 1.91 nM. Further, the EC50 in assay [1] turned out to be 19.2 nM.

Take “4-(2,4-difluorophenyl)-10-methyl-7-((methylsulfonyl)methyl)-11-oxo-3,4,10,11-tetrahydro-1H-1,4,10-triazadibenzo[cd,f]azulene-3-carboxamide [Example 141]”: the Ki is 20.8 nM at BRD4 (BDI_K57-E168) (setting [3]) and 10.9 nM at BRD4 (BDII_E352-M457) (setting [3]). Further, the EC50 in assay [1] stood at 319 nM.
